# Activity calls are given as the source filed them.
# System: Streptococcus sp. 'group A'
# Assay: Streptococcus pyogenes SK(-)GAS viability under kanamycin – luminescence, BacTiterGlo, confirmation, counter-screen for streptokinase expression inhibitor project, dose response (AID 1900)
# Assay type: functional, organism-based
# Settings: not given
row,SMILES,EC50
1,COc1ccccc1NC(=O)C(=O)NNC(=O)COc1ccc2ccccc2c1,4.14 µM (active)
2,Cc1cc(C)c2nc(N3C(=O)C(O)=C(C(=O)c4ccco4)C3c3ccco3)sc2c1 (centres undefined),2.52 µM (active)
3,CC(=O)Oc1ccccc1C1=NN(C(=O)/C=C/c2ccccc2)C(c2ccccc2)C1 (centres undefined),17.1 µM (active)
4,c1ccc(Oc2nc(-c3ccccn3)nc3ccccc23)cc1,44.1 µM (active)
5,CC1CCN(C(=O)c2ccc3c(c2)NC(=O)/C(=C/c2ccccc2)S3)CC1,2.64 µM (active)
6,O=C(O)c1ccc(N=Nc2c(O)[nH]c3ccc(Br)cc23)cc1,4.19 µM (active)
7,Clc1ccc(-c2[nH]nc3c2CCC3)cc1Cl,8.42 µM (active)
8,Cc1cc(C)c2c(n1)sc1c(=O)n(CC(=O)c3ccccc3)cnc12,0.95 µM (active)
9,CCOC(=O)c1ccc(-c2ccc3c(=O)c4ccccc4n(C)c3c2)cc1F,3.46 µM (active)
10,Cc1ccc(OCc2ccc(C(=O)Nc3c(C)nn(Cc4c(F)c(F)c(F)c(F)c4F)c3C)o2)c([N+](=O)[O-])c1,25.3 µM (active)
11,O=C(NCc1ccccn1)Nc1ccc(F)c(Cl)c1,> 150 µM (not active)
12,Cc1ccc(-c2cc(C(F)F)nc(N3CCC(C)CC3)n2)cc1,6.63 µM (active)
13,CN(CC1CCCO1)S(=O)(=O)c1ccc(C(=O)Nc2nnc(-c3ccccc3)o2)cc1 (centres undefined),4.14 µM (active)
14,CCC(C)Sc1cc(-c2nc3ccc(C)cn3c2NCc2ccccc2)ccc1OC (centres undefined),2.32 µM (active)

# Molecular target: T1, Streptokinase A (Streptococcus pyogenes serotype M1, UniProt P10520)
# T1 sequence (P10520 whole entry): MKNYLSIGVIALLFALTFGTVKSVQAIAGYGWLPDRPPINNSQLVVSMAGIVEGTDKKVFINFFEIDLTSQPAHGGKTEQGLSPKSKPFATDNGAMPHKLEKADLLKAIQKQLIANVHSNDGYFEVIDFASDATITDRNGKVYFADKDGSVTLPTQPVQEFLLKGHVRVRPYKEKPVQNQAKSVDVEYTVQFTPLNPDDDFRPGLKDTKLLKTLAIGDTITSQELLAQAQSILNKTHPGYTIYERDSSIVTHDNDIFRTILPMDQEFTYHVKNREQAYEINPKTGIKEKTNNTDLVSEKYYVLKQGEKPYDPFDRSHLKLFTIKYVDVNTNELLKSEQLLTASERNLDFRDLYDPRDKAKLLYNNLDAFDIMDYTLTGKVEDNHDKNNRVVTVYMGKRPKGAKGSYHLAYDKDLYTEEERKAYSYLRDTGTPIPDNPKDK
# Assay: viability-normalized secreted streptokinase activity reduction – plasminogen activation absorbance, OD405, dose response (AID 1914);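 also: secreted streptokinase activity via plasminogen activation per viability signal from cell pellet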
# Assay type: functional, Streptococcus pyogenes M1 GAS
# Settings: not given
row,SMILES,EC50
1,COc1ccccc1NC(=O)C(=O)NNC(=O)COc1ccc2ccccc2c1,> 150 µM (not active)
2,CC(=O)Oc1ccccc1C1=NN(C(=O)/C=C/c2ccccc2)C(c2ccccc2)C1 (centres undefined),> 150 µM (not active)
3,c1ccc(Oc2nc(-c3ccccn3)nc3ccccc23)cc1,> 150 µM (not active)
4,CC1CCN(C(=O)c2ccc3c(c2)NC(=O)/C(=C/c2ccccc2)S3)CC1,> 150 µM (not active)
5,Clc1ccc(-c2[nH]nc3c2CCC3)cc1Cl,> 150 µM (not active)
6,Cc1cc(C)c2c(n1)sc1c(=O)n(CC(=O)c3ccccc3)cnc12,> 150 µM (not active)
7,CCOC(=O)c1ccc(-c2ccc3c(=O)c4ccccc4n(C)c3c2)cc1F,> 150 µM (not active)
8,Cc1ccc(OCc2ccc(C(=O)Nc3c(C)nn(Cc4c(F)c(F)c(F)c(F)c4F)c3C)o2)c([N+](=O)[O-])c1,25.6 µM (inconclusive)
9,O=C(NCc1ccccn1)Nc1ccc(F)c(Cl)c1,> 150 µM (not active)
10,Cc1ccc(-c2cc(C(F)F)nc(N3CCC(C)CC3)n2)cc1,> 150 µM (not active)
11,CCC(C)Sc1cc(-c2nc3ccc(C)cn3c2NCc2ccccc2)ccc1OC (centres undefined),2.75 µM (active)

# System: not listed separately
# Assay: Trypanosoma cruzi growth suppression in host cells – NIH3T3 host cells, beta-gal luminescence, confirmation (AID 2044);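 also: intracellular parasites grown in NIH/3T3 mouse fibroblasts as host cells; luminescent beta-galactosidase reporter signal from transgenic T. cruzi replicating inside host cells; inhibitors lower the luminescence signal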
# Assay type: functional, cell-based
# Settings: not given
row,SMILES,EC50
1,O=C(Nc1cccc(F)c1)NC1CCN(Cc2ccccc2)CC1,0.736 µM (active)
2,Cc1ccc2cc3cc(C(=O)N(CC(=O)NC4CCCC4)c4cccc(C)c4C)sc3nc2c1,1.61 µM (active)
3,CC(=O)N(CCCN(C)C)c1nc2ccc(C)cc2s1,0.236 µM (active)
4,c1ccc(Oc2nc(-c3ccccn3)nc3ccccc23)cc1,3.8 µM (active)
5,CCC(C)(C)n1nnnc1C(c1cccs1)N1CCN(c2nc3ccccc3s2)CC1 (centres undefined),1.96 µM (active)
6,CC(=O)NC(=S)Nc1ccc(S(=O)(=O)N(C)Cc2ccccc2)cc1,1.22 µM (active)
7,Cc1cc2c(n1-c1ccc(Br)cc1)CC(C)(C)CC2=O,2.05 µM (active)
8,COc1ccc(CN2CCCC(C(=O)c3ccc(Cl)cc3)C2)cc1Cn1cncn1 (centres undefined),0.508 µM (active)
9,O=C(Nc1ccn(Cc2c(F)c(F)cc(F)c2F)n1)c1ccc(COc2ccccc2Cl)cc1,0.867 µM (active)
10,CN(CC(=O)Nc1ccc(S(=O)(=O)N2CCCC2)cc1)Cc1ccc(Cl)c(Cl)c1,2.04 µM (active)
11,COc1ccc(-n2nc(C)c3c(O)c4c(nc32)CCCC4)cc1,0.21 µM (active)
12,CN1CCN(c2ccc(S(=O)(=O)N3CCCCC3)cc2NC(=O)COc2ccc(F)cc2)CC1,0.538 µM (active)
13,CC(CCc1ccccc1)NC(=O)c1ccc(NC(=O)c2cccc(Br)c2)cc1 (centres undefined),2.02 µM (active)
14,O=C(COc1ccccc1C(=O)NCc1ccncc1)Nc1ccc(Br)cc1,2.15 µM (active)
15,CCC(=O)Nc1ccc(-c2nnc(-c3ccccc3)o2)cc1,1.55 µM (active)
16,OCC1(Cc2ccc(Cl)cc2)CCN(Cc2ccc(Oc3ncccn3)cc2)CC1,0.966 µM (active)
17,CN(C)CCCNc1oc(-c2ccccc2Cl)nc1S(=O)(=O)c1ccc(F)cc1,0.135 µM (active)
18,c1ccc(Cc2noc(CN3CCN(CCOc4ccccc4)CC3)n2)cc1,1.09 µM (active)
19,Cc1ccc([N+](=O)[O-])cc1NC(=O)CN(C1CCCCC1)S(=O)(=O)c1ccc(Cl)cc1,3.08 µM (active)

# System: not listed separately
# Assay: NIH3T3 cell viability loss – ATP luminescence, mouse fibroblasts, counter-screen, dose response (AID 2010);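 also: cells exposed to compound for about 90 hours before reading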
# Assay type: functional, cell-based
# Settings: not given
row,SMILES,EC50
1,O=C(Nc1cccc(F)c1)NC1CCN(Cc2ccccc2)CC1,> 60 µM (not active)
2,Cc1ccc2cc3cc(C(=O)N(CC(=O)NC4CCCC4)c4cccc(C)c4C)sc3nc2c1,> 30 µM (not active)
3,CC(=O)N(CCCN(C)C)c1nc2ccc(C)cc2s1,> 60 µM (not active)
4,c1ccc(Oc2nc(-c3ccccn3)nc3ccccc23)cc1,> 60 µM (not active)
5,CCC(C)(C)n1nnnc1C(c1cccs1)N1CCN(c2nc3ccccc3s2)CC1 (centres undefined),8.58 µM (active)
6,CC(=O)NC(=S)Nc1ccc(S(=O)(=O)N(C)Cc2ccccc2)cc1,> 30 µM (not active)
7,Cc1cc2c(n1-c1ccc(Br)cc1)CC(C)(C)CC2=O,> 60 µM (not active)
8,COc1ccc(CN2CCCC(C(=O)c3ccc(Cl)cc3)C2)cc1Cn1cncn1 (centres undefined),> 30 µM (not active)
9,O=C(Nc1ccn(Cc2c(F)c(F)cc(F)c2F)n1)c1ccc(COc2ccccc2Cl)cc1,> 60 µM (inconclusive)
10,CN(CC(=O)Nc1ccc(S(=O)(=O)N2CCCC2)cc1)Cc1ccc(Cl)c(Cl)c1,> 60 µM (not active)
11,COc1ccc(-n2nc(C)c3c(O)c4c(nc32)CCCC4)cc1,> 60 µM (not active)
12,CN1CCN(c2ccc(S(=O)(=O)N3CCCCC3)cc2NC(=O)COc2ccc(F)cc2)CC1,> 60 µM (not active)
13,CC(CCc1ccccc1)NC(=O)c1ccc(NC(=O)c2cccc(Br)c2)cc1 (centres undefined),> 60 µM (not active)
14,O=C(COc1ccccc1C(=O)NCc1ccncc1)Nc1ccc(Br)cc1,> 60 µM (not active)
15,CCC(=O)Nc1ccc(-c2nnc(-c3ccccc3)o2)cc1,> 60 µM (not active)
16,OCC1(Cc2ccc(Cl)cc2)CCN(Cc2ccc(Oc3ncccn3)cc2)CC1,> 60 µM (inconclusive)
17,CN(C)CCCNc1oc(-c2ccccc2Cl)nc1S(=O)(=O)c1ccc(F)cc1,24.1 µM (active)
18,c1ccc(Cc2noc(CN3CCN(CCOc4ccccc4)CC3)n2)cc1,> 60 µM (not active)
19,Cc1ccc([N+](=O)[O-])cc1NC(=O)CN(C1CCCCC1)S(=O)(=O)c1ccc(Cl)cc1,> 60 µM (not active)

# System: Streptococcus
# Assay: GAS UMAA2166 growth inhibition – luminescence, BacTiterGlo, counter-screen for streptokinase expression inhibitor project, dose response (AID 1915);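 also: potency for reduction of bacterial viability or growth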
# Assay type: functional, organism-based
# Settings: not given
row,SMILES,EC50
1,COc1ccccc1NC(=O)C(=O)NNC(=O)COc1ccc2ccccc2c1,17.7 µM (active)
2,Cc1cc(C)c2nc(N3C(=O)C(O)=C(C(=O)c4ccco4)C3c3ccco3)sc2c1 (centres undefined),5.86 µM (active)
3,CC(=O)Oc1ccccc1C1=NN(C(=O)/C=C/c2ccccc2)C(c2ccccc2)C1 (centres undefined),> 150 µM (not active)
4,c1ccc(Oc2nc(-c3ccccn3)nc3ccccc23)cc1,22.5 µM (active)
5,CC1CCN(C(=O)c2ccc3c(c2)NC(=O)/C(=C/c2ccccc2)S3)CC1,6.87 µM (active)
6,O=C(O)c1ccc(N=Nc2c(O)[nH]c3ccc(Br)cc23)cc1,8.12 µM (active)
7,Clc1ccc(-c2[nH]nc3c2CCC3)cc1Cl,13.9 µM (active)
8,Cc1cc(C)c2c(n1)sc1c(=O)n(CC(=O)c3ccccc3)cnc12,5.59 µM (active)
9,CCOC(=O)c1ccc(-c2ccc3c(=O)c4ccccc4n(C)c3c2)cc1F,> 150 µM (not active)
10,Cc1ccc(OCc2ccc(C(=O)Nc3c(C)nn(Cc4c(F)c(F)c(F)c(F)c4F)c3C)o2)c([N+](=O)[O-])c1,> 150 µM (not active)
11,O=C(NCc1ccccn1)Nc1ccc(F)c(Cl)c1,> 150 µM (not active)
12,Cc1ccc(-c2cc(C(F)F)nc(N3CCC(C)CC3)n2)cc1,10 µM (active)
13,CN(CC1CCCO1)S(=O)(=O)c1ccc(C(=O)Nc2nnc(-c3ccccc3)o2)cc1 (centres undefined),12.2 µM (active)
14,CCC(C)Sc1cc(-c2nc3ccc(C)cn3c2NCc2ccccc2)ccc1OC (centres undefined),9.32 µM (active)

# Molecular target: Cytochrome P450 2C19 (Homo sapiens, UniProt P33261)
# Sequence (P33261 whole entry): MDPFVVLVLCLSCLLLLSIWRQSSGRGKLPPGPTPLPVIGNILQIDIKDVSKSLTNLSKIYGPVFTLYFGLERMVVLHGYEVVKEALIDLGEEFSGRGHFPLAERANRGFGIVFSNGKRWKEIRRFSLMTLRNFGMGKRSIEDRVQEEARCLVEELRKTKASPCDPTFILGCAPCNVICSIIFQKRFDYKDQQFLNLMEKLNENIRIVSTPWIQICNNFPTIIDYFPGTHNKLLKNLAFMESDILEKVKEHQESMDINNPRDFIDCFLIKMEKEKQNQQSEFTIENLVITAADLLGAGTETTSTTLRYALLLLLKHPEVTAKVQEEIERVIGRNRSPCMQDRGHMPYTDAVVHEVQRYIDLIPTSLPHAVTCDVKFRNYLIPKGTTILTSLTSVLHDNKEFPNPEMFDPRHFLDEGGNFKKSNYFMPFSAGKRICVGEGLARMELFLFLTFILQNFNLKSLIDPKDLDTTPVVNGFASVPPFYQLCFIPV
# Assay: Cytochrome panel assay with activity outcomes. Panel member name: p450-cyp2c19 Compounds with AC50 equal or less than 10 uM are considered active
# Assay type: functional
# Settings: not given
row,SMILES,AC50
1,Cc1cc(=O)oc(C)c1C(=O)NCc1ccccn1,inconclusive

# Molecular target: T2, Corticotropin-releasing factor receptor 2/Corticotropin-releasing factor-binding protein (Homo sapiens, UniProt P24387+Q13324)
# T2 sequence (Q13324 whole entry): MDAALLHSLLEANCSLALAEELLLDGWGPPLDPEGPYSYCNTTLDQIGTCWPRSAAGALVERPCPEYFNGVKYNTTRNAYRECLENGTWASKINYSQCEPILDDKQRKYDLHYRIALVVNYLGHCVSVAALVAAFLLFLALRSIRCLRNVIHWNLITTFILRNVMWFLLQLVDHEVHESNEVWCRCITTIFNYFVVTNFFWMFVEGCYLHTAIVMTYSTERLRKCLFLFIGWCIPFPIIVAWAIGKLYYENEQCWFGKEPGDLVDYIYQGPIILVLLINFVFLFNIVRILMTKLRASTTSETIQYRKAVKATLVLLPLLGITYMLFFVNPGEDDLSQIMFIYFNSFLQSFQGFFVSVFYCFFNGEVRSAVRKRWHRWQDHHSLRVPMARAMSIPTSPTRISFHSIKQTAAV
# T2 sequence (P24387 whole entry): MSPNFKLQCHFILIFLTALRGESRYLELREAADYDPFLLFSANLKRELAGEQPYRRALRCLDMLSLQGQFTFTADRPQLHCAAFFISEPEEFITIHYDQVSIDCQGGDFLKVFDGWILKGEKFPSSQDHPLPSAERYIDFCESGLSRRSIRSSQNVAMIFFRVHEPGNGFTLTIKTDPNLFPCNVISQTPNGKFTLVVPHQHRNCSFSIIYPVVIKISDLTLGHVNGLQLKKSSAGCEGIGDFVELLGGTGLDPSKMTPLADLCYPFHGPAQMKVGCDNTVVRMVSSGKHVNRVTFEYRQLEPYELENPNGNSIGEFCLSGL
# Assay: activators of CRF receptor 2 with binding protein – uHTS hits, confirmation (AID 602473)
# Assay type: functional
# Settings: read-out: EC50_Mean
row,SMILES,EC50
1,Cc1cc2nc(/C(C#N)=C\c3ccc(-c4ccccc4C(=O)O)o3)[nH]c2cc1C,5.8 µM (active)
2,O=C(NCc1ccc(OC(F)(F)F)cc1)c1cccc2c1C(=O)c1ccc(N3CCCC3)cc1S2(=O)=O,11.8 µM (active)
3,CC(Oc1ccc(Cl)cc1)C(=O)Nc1ccccc1N1CCOCC1 (centres undefined),7.37 µM (active)
4,COc1ccccc1N(CC(=O)N1CCCCC1C)S(=O)(=O)c1ccc(Cl)cc1 (centres undefined),5.95 µM (active)
5,CNc1nc(N(C)C)nc(N(C)C)n1 [PENTAMETHYL MELAMINE],> 53 µM (inactive)

# Molecular target: Cytochrome P450 2D6 (Homo sapiens, UniProt P10635);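 also: CYP2D6 member of a cytochrome P450 panel assay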
# Sequence (P10635 whole entry): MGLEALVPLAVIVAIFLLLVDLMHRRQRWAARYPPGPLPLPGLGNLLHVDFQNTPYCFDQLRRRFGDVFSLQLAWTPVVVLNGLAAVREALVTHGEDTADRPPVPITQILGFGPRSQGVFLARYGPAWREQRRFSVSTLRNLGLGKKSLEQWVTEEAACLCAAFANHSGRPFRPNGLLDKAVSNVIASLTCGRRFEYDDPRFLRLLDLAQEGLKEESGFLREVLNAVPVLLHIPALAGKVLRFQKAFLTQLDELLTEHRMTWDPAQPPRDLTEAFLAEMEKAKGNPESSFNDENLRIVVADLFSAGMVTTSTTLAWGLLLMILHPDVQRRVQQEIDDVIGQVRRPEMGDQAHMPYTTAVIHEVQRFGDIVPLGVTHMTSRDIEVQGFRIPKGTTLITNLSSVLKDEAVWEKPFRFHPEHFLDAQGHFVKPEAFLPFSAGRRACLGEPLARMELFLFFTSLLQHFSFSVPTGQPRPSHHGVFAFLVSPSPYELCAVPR
# Settings: not given
row,SMILES,AC50
1,O=c1c2ccccc2c(-c2ccccc2)nn1-c1ccc(Cl)c(Cl)c1,10 µM (inconclusive)
2,Cc1cccc(CNc2ncncc2-c2cccnc2)c1,25.1 µM (inconclusive)
3,Cc1ccc(S(=O)(=O)Nc2cc(O)nc3c2CCC3)cc1,2.51 µM (inconclusive)
4,COc1ccccc1CNc1nc(-c2ccoc2)nc2ccccc12,6.31 µM (active)
5,COc1ncc2nc(C)c(=O)n(Cc3cccs3)c2n1,25.1 µM (inconclusive)
6,CCn1c2ccccc2c2cc(NC(=O)C/C(C)=N/NC(=O)c3ccccc3N)ccc21,25.1 µM (inconclusive)

# From ChEMBL document CHEMBL1201862, “PubChem BioAssay data set” (2004)
